Test results published in ChEMBL document CHEMBL1201862, “PubChem BioAssay data set” (2004).
Calls of active or inactive are those of the source.

Key:
[1] = molecular target: T1, Protein RecA (Mycobacterium tuberculosis, UniProt P9WHJ3); test: Fluorescence Cell-Free Homogeneous Dose Retest to Identify Inhibitors of RecA-Intein Splicing Activity. [Related pubchem assays (depositor defined):AID2097, AID2223, AID489010, AID492950]; assay type: functional
T1 sequence (P9WHJ3 whole entry): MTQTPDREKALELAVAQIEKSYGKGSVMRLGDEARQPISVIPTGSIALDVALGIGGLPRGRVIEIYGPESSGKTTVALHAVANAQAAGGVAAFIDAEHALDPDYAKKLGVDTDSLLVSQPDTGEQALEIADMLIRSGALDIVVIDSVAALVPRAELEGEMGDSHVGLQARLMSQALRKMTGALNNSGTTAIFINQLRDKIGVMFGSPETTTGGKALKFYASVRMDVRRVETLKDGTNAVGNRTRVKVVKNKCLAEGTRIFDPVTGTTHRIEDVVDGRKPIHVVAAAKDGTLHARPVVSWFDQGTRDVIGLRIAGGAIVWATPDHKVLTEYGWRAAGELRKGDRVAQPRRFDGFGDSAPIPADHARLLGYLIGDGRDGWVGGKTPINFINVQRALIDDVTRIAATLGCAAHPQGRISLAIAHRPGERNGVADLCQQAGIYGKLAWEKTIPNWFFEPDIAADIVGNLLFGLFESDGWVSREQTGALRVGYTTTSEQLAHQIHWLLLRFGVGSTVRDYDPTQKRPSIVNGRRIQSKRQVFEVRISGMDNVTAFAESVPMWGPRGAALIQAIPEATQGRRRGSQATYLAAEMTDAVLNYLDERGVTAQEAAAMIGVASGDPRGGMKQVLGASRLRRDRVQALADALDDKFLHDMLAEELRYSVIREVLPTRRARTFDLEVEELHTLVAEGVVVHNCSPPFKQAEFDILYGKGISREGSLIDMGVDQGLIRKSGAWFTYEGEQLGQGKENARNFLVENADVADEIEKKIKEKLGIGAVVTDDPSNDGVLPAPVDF

[2] = molecular target: T2, Replicative DNA helicase DnaB (Mycobacterium tuberculosis, UniProt P9WMR3); test: DnaB intein splicing inhibitors, dose response, biochemical, cell-free fluorescence (AID 449749); assay type: functional
T2 sequence (P9WMR3 whole entry): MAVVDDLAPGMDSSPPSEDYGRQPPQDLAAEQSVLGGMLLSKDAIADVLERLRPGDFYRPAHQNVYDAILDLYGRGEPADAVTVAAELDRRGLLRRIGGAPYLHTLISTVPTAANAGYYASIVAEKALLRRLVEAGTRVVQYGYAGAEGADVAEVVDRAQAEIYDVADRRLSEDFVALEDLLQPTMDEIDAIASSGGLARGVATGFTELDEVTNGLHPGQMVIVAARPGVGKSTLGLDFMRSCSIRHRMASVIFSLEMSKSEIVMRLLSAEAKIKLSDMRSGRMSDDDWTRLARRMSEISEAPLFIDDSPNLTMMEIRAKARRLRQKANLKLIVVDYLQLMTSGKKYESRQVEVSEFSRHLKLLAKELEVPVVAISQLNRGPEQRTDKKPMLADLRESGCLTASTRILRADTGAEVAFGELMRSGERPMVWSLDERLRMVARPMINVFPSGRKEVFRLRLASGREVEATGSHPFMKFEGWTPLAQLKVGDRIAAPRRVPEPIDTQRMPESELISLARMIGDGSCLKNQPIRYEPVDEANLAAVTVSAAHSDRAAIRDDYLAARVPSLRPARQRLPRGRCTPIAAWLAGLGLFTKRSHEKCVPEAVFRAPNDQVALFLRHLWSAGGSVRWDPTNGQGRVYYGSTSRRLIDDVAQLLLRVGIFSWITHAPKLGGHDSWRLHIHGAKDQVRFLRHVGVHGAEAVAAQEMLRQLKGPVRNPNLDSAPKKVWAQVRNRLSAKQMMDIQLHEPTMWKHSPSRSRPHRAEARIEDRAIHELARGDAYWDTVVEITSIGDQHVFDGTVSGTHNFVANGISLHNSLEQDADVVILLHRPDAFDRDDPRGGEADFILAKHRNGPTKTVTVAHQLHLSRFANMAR

[3] = test system: H9c2; test: cells; assay type: functional, cell-based; conditions: Rattus norvegicus, H9c2, Myocardium;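 note: confirmatory concentration-response retest of ultra-high-throughput screening hits for modulation of myocardial damage; cell death induced by hydrogen peroxide oxidative stress; compound pretreatment for 60 min then peroxide exposure for 2 h; potency is for protecting the cells against peroxide damage rather than for killing them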
[4] = Luminescence Cell-Based Dose Response HTS to Identify Activators of Luciferase Translation or Activity in H4 […] Cells. [Related pubchem assays: 1829 (Project Summary), 1814 (Primary HTS)]; assay type: functional
[5] = test system: H4; test: Luminescence Cell-Based Dose Response HTS to Identify Activators of 5'UTR Stem-Loop Driven Prion Protein mRNA Translation in H4 Neuroglioblastoma Cells. [Related pubchem assays: 1829 (Project Summary), 1814 (Primary HTS)]; assay type: functional; conditions: Homo sapiens
[6] = Luminescence Cell-Based Dose Confirmation HTS to Identify Activators of 5'UTR Stem-Loop Driven Alpha-Synuclein mRNA Translation in H4 Neuroglioblastoma Cells. [Related pubchem assays: 1829 (Project Summary), 1814 (Primary HTS)]; assay type: functional
[7] = molecular target: T3, Heat shock factor protein 1 (Mus musculus, UniProt P38532); test: HSF1 potentiators in luciferase reporter cells, confirmation, cell-based, NIH3T3, luminescence, dose retest (AID 435004); assay type: functional;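 note: stress induced by proteasome inhibitor MG132 added 30 min after compound; luciferase reporter driven by HSF1 response element in NIH3T3 cells; actives raise luminescence as potentiators of the MG132 stress response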
T3 sequence (P38532 whole entry): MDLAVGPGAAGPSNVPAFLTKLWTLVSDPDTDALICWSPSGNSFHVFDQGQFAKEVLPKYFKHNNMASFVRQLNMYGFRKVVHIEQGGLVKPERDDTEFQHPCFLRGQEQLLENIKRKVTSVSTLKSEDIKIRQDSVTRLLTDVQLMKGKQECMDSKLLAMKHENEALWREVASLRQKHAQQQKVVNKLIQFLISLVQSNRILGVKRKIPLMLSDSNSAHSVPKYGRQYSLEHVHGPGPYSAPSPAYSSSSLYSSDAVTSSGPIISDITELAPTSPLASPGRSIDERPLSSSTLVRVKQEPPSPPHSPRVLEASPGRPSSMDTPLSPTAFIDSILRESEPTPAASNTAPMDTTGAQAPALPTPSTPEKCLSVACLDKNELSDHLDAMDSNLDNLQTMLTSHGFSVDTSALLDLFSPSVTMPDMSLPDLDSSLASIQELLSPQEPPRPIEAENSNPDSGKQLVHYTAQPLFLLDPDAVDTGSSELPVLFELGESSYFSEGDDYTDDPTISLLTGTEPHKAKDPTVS

[8] = molecular target: T4, Corticotropin-releasing factor receptor 2/Corticotropin-releasing factor-binding protein (Homo sapiens, UniProt P24387+Q13324); test: Dose Response confirmation of uHTS hits for small molecule antagonists of the CRF-binding protein and CRF-R2 receptor complex.; assay type: functional; conditions: read-out: IC50_Mean
T4 sequence (Q13324 whole entry): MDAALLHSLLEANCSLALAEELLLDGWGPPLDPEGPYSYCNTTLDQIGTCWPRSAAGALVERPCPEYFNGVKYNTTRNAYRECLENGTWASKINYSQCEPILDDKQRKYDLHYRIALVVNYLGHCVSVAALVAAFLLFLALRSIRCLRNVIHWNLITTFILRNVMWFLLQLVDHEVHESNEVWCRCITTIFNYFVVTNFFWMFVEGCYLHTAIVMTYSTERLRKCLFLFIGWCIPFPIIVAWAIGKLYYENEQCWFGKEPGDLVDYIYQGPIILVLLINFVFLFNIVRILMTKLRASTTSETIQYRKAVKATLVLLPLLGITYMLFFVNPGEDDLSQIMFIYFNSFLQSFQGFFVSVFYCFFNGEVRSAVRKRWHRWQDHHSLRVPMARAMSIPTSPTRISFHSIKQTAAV
T4 sequence (P24387 whole entry): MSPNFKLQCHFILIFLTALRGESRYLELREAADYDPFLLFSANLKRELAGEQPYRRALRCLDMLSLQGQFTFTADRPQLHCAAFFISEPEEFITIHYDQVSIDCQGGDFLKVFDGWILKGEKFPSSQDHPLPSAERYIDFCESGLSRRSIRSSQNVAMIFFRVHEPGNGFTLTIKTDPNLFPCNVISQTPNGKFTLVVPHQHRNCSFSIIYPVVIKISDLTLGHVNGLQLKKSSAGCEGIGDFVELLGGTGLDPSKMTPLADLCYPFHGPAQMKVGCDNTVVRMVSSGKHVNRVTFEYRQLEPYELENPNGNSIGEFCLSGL

[9] = molecular target: T4, Corticotropin-releasing factor receptor 2/Corticotropin-releasing factor-binding protein; test: activators of CRF receptor 2 with binding protein – uHTS hits, confirmation (AID 602473); assay type: functional; conditions: read-out: EC50_Mean
[10] = Luminescence Cell-Based Dose Retest to Confirm Inhibitors of Cancer Stem Cells. [Related pubchem assays (depositor defined):AID2717, AID2721]; assay type: functional; conditions: Homo sapiens
[11] = molecular target: Cytochrome P450 2C9 (Homo sapiens, UniProt P11712)
Cytochrome P450 2C9, sequence (P11712 whole entry): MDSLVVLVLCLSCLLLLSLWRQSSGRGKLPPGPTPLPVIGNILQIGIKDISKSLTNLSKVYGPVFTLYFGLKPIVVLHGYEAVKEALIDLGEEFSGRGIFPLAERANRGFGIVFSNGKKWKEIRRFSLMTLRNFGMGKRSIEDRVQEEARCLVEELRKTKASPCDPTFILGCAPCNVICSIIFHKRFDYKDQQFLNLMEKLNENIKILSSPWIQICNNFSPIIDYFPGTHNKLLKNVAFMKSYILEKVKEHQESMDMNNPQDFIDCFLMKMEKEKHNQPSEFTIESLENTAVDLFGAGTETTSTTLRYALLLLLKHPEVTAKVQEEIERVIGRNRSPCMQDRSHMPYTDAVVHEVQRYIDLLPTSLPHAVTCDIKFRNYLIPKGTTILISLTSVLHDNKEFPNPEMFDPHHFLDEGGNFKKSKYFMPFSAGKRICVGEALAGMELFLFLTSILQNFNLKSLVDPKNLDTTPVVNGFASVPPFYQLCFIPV

[12] = molecular target: Cytochrome P450 2C19 (Homo sapiens, UniProt P33261); test: Cytochrome panel assay with activity outcomes. Panel member name: p450-cyp2c19 Compounds with AC50 equal or less than 10 uM are considered active; assay type: functional; conditions: read-out: AC50
Cytochrome P450 2C19, sequence (P33261 whole entry): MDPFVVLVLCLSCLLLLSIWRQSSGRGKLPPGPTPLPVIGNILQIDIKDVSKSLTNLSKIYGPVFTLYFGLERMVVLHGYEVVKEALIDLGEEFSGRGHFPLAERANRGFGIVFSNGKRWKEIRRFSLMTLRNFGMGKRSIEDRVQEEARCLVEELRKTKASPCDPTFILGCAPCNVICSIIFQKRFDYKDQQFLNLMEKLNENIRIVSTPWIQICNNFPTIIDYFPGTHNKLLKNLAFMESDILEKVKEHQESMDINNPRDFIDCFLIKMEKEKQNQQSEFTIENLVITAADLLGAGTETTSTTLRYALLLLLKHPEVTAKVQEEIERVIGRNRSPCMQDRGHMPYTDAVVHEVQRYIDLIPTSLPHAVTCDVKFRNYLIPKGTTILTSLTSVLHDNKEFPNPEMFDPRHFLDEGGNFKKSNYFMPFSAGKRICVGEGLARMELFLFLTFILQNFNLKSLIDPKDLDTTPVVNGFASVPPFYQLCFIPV

[13] = growth suppression of beta-catenin-knockout colon cells, dose response, cell-based, HCT116, human colon tumor (AID 1045); assay type: functional;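 note: HCT116 colon tumor cells with beta catenin knocked out; cells exposed to compound for 60 hours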
[14] = growth suppression of PTEN-null colon cells, dose response, cell-based, HCT116 PTEN knockout (AID 1047); assay type: functional;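 note: HCT116 colon tumor cells with PTEN knocked out; cells exposed to compound for 60 hours before readout; potency for loss of cell viability measured by luminescence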

Compound: COc1ccc(OCc2cc(C(=O)N3CCCC(OC)C3)no2)c2ccccc12 (stereo not drawn)
- EC50 [1]: 3.9 µM (active)
- AC50 [2]: 15 µM (active)

Compound: Cc1c(C=O)c2ccccn2c1C(=O)c1ccc(Cl)c([N+](=O)[O-])c1
- IC50 [3]: > 79 µM (inactive)

Compound: C=CCNc1nc(-c2ccc(OC)cc2OC)cs1
- EC50 [4]: 26.8 µM (active)
- EC50 [5]: 53.9 µM (active)
- EC50 [6]: 0.287 µM (active)

Compound: Oc1nc(N2CCN(c3ccccc3)CC2)nc2c1CCC2
- EC50 [7]: > 260 µM (inactive)
- IC50 [3]: 54.4 µM (inactive)

Compound: COCCn1c(-c2ccsc2)nc2c1c(=O)[nH]c(=O)n2CC(C)C
- IC50 [8]: > 47.1 µM (inactive)
- EC50 [9]: > 53 µM (inactive)

Compound: CCSc1nnc(N)s1
- IC50 [3]: > 79 µM (inactive)

Compound: CCOC(=O)c1c(C)sc2c1N(C(=O)CCl)c1cc(Cl)ccc1S2
- EC50 [1]: 0.506 µM (active)
- AC50 [10]: 2.22 µM (active)
- AC50 [2]: 3.1 µM (active)

Compound: CN1CCc2nc(SCC(=O)OC(C)(C)C)c(C#N)cc2C1
- EC50 [4]: 15.4 µM (active)
- EC50 [5]: 108 µM (active)
- EC50 [6]: 20.8 µM (active)

Compound: COc1ccc(S(=O)(=O)N(CCCN2CCCC2=O)Cc2cc3cc(C)c(C)cc3nc2O)cc1
- IC50 [3]: > 79 µM (inactive)

Compound: CC(=O)c1c(C)[nH]c(C(=O)CSc2ccc(F)cc2)c1C
- EC50 [4]: 30.2 µM (active)
- EC50 [5]: 71.1 µM (active)
- EC50 [6]: 20 µM (active)

Compound: CCOC(=O)c1nnn(CC(=O)N2N=C(c3ccccc3)CC2c2ccccc2)c1C(=O)OCC (stereo not drawn)
- IC50 [8]: > 47.1 µM (inactive)
- EC50 [9]: > 53 µM (inactive)

Compound: ONc1cccnc1-n1nc(C(F)(F)F)cc1C(F)(F)F
- EC50 [1]: > 380 µM (inconclusive)

Compound: O=C(O)c1nn(CC(=O)N2CCN(c3ccccc3)CC2)c(=O)c2ccccc12
- IC50 [3]: 31 µM (inactive)

Compound: CCOC(=O)c1cccc(NS(=O)(=O)Cc2ccccc2)c1
- IC50 [8]: > 47.1 µM (inactive)
- EC50 [9]: > 53 µM (inactive)

Compound: CC(=O)C12CC(C)=C(C)CC1CC1C3CCC4=CC(=O)CCC4(C)C3CCC12C (stereo not drawn)
- EC50 [1]: 289 µM (inconclusive)
- AC50 [10]: 5.78 µM (active)
- AC50 [2]: 3.05 µM (active)

Compound: Cc1nn(-c2ccc(N3CCCCC3)nn2)c(C)c1CCC(=O)Nc1cccc(F)c1
- EC50 [4]: 2.66 µM (active)
- EC50 [6]: 20.8 µM (active)

Compound: O=[N+]([O-])C(/C=C(\Cl)[N+](=O)[O-])=C1N(Cc2ccc(Cl)nc2)CCN1Cc1ccc(Cl)nc1
- EC50 [1]: 8.49 µM (active)
- AC50 [11]: 12.6 µM (inconclusive)
- AC50 [12]: 31.6 µM (inconclusive)
- AC50 [2]: 11.4 µM (active)

Compound: O=C(Oc1ccccc1N1C(=O)CCC1=O)c1ccco1
- EC50 [1]: 14.8 µM (active)
- AC50 [2]: 6.7 µM (active)

Compound: O=C(COc1cccc(NC(=O)c2cccc([N+](=O)[O-])c2)c1)c1ccc(F)cc1
- IC50 [3]: > 79 µM (inactive)

Compound: COC(=O)c1ccc(Cc2ccccc2)o1
- IC50 [8]: > 47.1 µM (inactive)
- EC50 [9]: > 53 µM (inactive)

Compound: Cc1ccc(C(=O)COC(=O)CCN2C(=O)C3C4C=CC(C5CC45)C3C2=O)cc1 (stereo not drawn)
- IC50 [8]: > 47.1 µM (inactive)
- EC50 [9]: > 53 µM (inactive)

Compound: COC(=O)c1c(C)[nH]c(C(=O)COc2ccc3ccc(=O)oc3c2)c1C
- IC50 [3]: > 79 µM (inactive)

Compound: CC1CCCC(C)N1C(=O)COC(=O)c1cccs1 (stereo not drawn)
- IC50 [8]: > 47.1 µM (inactive)
- EC50 [9]: > 53 µM (inactive)

Compound: CC(C)(C)c1nn(-c2ccccc2)c2nc(O)c(CNCc3ccco3)cc12
- EC50 [13]: 9.2 µM (active)
- IC50 [3]: > 79 µM (inactive)
- EC50 [14]: 7.45 µM (active)

Compound: O=C(N/N=C/c1ccccn1)c1cc(C2CC2)nc2ccccc12
- IC50 [3]: > 79 µM (inactive)

Compound: CC1(NC(=O)CCc2nc(O)c3ccccc3n2)CCS(=O)(=O)C1 (stereo not drawn)
- IC50 [3]: > 79 µM (inactive)

Compound: CCCCNc1nc(CC)c2c(c1C#N)CCCC2
- IC50 [8]: > 47.1 µM (inactive)
- EC50 [9]: > 53 µM (inactive)

Compound: O=c1cc(-c2ccc([N+](=O)[O-])cc2)c2ccc(O)cc2o1
- IC50 [3]: > 79 µM (inactive)

Compound: CC1=C(C(=O)OCc2ccccc2)C(/C=C/c2ccccc2)N2C(=O)CCSC2=N1 (stereo not drawn)
- IC50 [8]: > 47.1 µM (inactive)
- EC50 [9]: > 53 µM (inactive)

Compound: COC(=O)c1ccc2nc3c(cc2c1)[C@@H]1CCN2C(=O)CCC[C@H](C3)[C@H]12
- IC50 [8]: > 47.1 µM (inactive)
- EC50 [9]: > 53 µM (inactive)
